# Measured values as given in patent publication US20080255106A1, “Novel 2-Phenyl-Imidazo[4,5-B]Pyridine Derivatives as Inhibitors of Glycogen Synthase Kinase for the Treatment of Dementia and Neurodegenerative Disorders” (AstraZeneca AB, priority 2005, published 2008).
# pKi: −log10 of the molar value. Where a name gives a salt, the structure may show the parent alone.
# Molecular target: T1, GSK3β (Homo sapiens, UniProt P49841)
# T1 construct: purchased Dundee University, UK
# Test: GSK3β Scintillation Proximity Assay (ATP competition)
# Assay type: biochemical
# Conditions: recombinant human GSK3β, SPA, 1 μM ATP, Km of ATP 20 μM used to calculate Ki
# Experimental: Determination of ATP Competition in Scintillation Proximity GSK3β Assay.
# GSK3β Scintillation Proximity Assay.
# The competition experiments were carried out in duplicate with 10 different concentrations of the inhibitors in clear-bottom microtiter plates (Wallac, Finland). A biotinylated peptide substrate, Biotin-Ala-Ala-Glu-Glu-Leu-Asp-Ser-Arg-Ala-Gly-Ser(PO3H2)-Pro-Gln-Leu (AstraZeneca, Lund), was added at a final concentration of 1 μM in an assay buffer containing 1 mU recombinant human GSK30 (Dundee University, UK), 12 mM morpholinepropanesulfonic acid (MOPS), pH 7.0, 0.3 mM EDTA, 0.01% β-mercaptoethanol, 0.004% Brij 35 (a […] detergent), 0.5% glycerol and 0.5 μg BSA/25 μl. The reaction was initiated by the addition of 0.04 μCi [γ-^33P]ATP (Amersham, UK) and unlabelled ATP at a final concentration of 1 μM and assay volume of 25 μl. After incubation for 20 minutes at room temperature, each reaction was terminated by the addition of 25 μl stop solution containing 5 mM EDTA, 50 μM ATP, 0.1% Triton X-100 and 0.25 mg streptavidin coated Scintillation Proximity Assay (SPA) beads (Amersham, UK). After 6 hours the radioactivity was determined in a liquid scintillation counter (1450 MicroBeta Trilux, Wallac). The inhibition curves were analysed by non-linear regression using GraphPad Prism, USA. The Km value of ATP for GSK3, used to calculate the inhibition constants (Ki) of the various compounds, was 20 μM.
# T1 sequence (P49841 whole entry): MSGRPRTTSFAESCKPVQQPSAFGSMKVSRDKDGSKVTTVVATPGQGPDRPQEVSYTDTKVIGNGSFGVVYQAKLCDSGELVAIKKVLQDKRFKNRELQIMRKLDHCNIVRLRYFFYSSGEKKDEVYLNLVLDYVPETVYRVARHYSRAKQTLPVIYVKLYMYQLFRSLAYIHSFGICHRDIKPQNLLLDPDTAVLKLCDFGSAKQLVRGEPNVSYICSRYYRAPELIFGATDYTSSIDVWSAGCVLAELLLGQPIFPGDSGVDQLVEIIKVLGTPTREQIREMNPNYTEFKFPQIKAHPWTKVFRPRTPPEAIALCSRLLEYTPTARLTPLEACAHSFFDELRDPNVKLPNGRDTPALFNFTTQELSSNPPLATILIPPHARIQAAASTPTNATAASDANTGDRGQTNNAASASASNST
row,pKi,Compound
1,7.29,"COCCCNC(=O)c1ccnc2[nH]c(-c3ccc(C(=O)N4CCN(C)CC4)cc3)nc12 [Example 6, N-(3-Methoxypropyl)-2-{4-[(4-methylpiperazin-1-yl)carbonyl]phenyl}-3H-imidazo[4,5-b]pyridine-7-carboxamide hydrochloride]"
2,8.10,"COCCCNC(=O)c1ccnc2[nH]c(-c3cccc(COCC(F)(F)C(F)F)c3)nc12 [Example 4, N-(3-Methoxypropyl)-2-{3-[(2,2,3,3-tetrafluoropropoxy)methyl]phenyl}-3H-imidazo[4,5-b]pyridine-7-carboxamide hydrochloride]"
3,7.77,"COCCCNC(=O)c1ccnc2[nH]c(-c3ccc(C(F)(F)F)cc3)nc12 [Example 3, N-(3-Methoxypropyl)-2-[4-(trifluoromethyl)phenyl]-3H-imidazo[4,5-b]pyridine-7-carboxamide hydrochloride]"
4,7.44,"COCCCNC(=O)c1ccnc2[nH]c(-c3ccc(C(=O)N4CCOCC4)cc3)nc12 [Example 7, N-(3-Methoxypropyl)-2-[4-(morpholin-4-ylcarbonyl)phenyl]-3H-imidazo[4,5-b]pyridine-7-carboxamide hydrochloride]"
